The values below come from paper PMC5306082, “Physiologically based kinetic modeling of the bioactivation of myristicin” (Archives of Toxicology, 2016).

Data set [1] can be described thus: Glucuronidation of 1′-hydroxymyristicin, human liver S9. It is filed as in vitro ADME. The following applies: both sexes, human, pH 7.4; 1′-hydroxymyristicin to its glucuronide; S9, UDPGA; read-out: Km. How it is done: The kinetic constants for the metabolic conversion of 1′-hydroxymyristicin to 1′-hydroxymyristicin glucuronide (HMG) by both male rat and human liver fractions were determined as described previously for the related 1′-hydroxyalkenylbenzenes (Punt et al. [2008]; van den Berg et al. [2012]; Punt et al. [2009]; Martati et al. [2011], [2012]; Al-Subeihi et al. [2011], [2012]). Briefly, incubations contained (final concentrations) 10 mM of UDPGA and 0.5 mg/ml of male Sprague–Dawley or pooled gender human S9 protein in 0.2 M Tris–HCl (pH 7.4) containing 10 mM of MgCl2. To overcome enzyme latency and to obtain maximal glucuronidation activity, incubations containing S9 were pretreated on ice with 0.025 mg/ml alamethicin added from a 200 times concentrated stock dissolved in methanol (Fisher et al. [2000]; Lin and Wong [2002]). After 15 min of alamethicin treatment, samples were pre-incubated at 37 °C for 1 min, and reactions were subsequently started by adding 1′-hydroxymyristicin at final concentrations of 10 to 1200 μM. 1′-Hydroxymyristicin was added from 100 times concentrated stock solutions in DMSO. The reaction mixtures were incubated for 30 and 180 min for rat and human, respectively, and terminated by adding 25 µl (0.25 times the incubation volume) of ice-cold ACN. Blank incubations were carried out in the absence of the cofactor UDPGA. Experiments were performed in triplicate. The longer incubation time in human samples was required due to the lower rate of glucuronidation. The formation of 1′-hydroxymyristicin glucuronide was linear with time and the S9 protein concentration under the experimental conditions described. All samples were centrifuged for 5 min at 16,000×g, and the supernatant was stored at −20 °C until ultra-performance liquid chromatography (UPLC) analysis.
1′-Hydroxymyristicin glucuronide was estimated based on the comparison of the peak area of the formed metabolite to the calibration curve of 1′-hydroxymyristicin at a wavelength of 210 nm. The flow rate was 0.6 ml/min. The gradient was made using a mixture of ACN and ultrapure water containing 0.1 % (v/v) TFA.

Data set [2] in a line: Microsomal conversion of myristicin, male rat liver microsomes. It is filed as in vitro ADME. How it is done:
First, it was determined which organs are involved in the biotransformation of myristicin in rat and human. For this purpose, liver, kidney, lung, and small intestine microsomes from male Sprague–Dawley rat and pooled gender human were used. Incubations were performed by adding myristicin to incubation mixtures containing 1 mg/mL of the microsomal protein preparations and 3 mM NADPH in 0.2 M Tris–HCl (pH 7.4). After 1 min of pre-incubation at 37 °C, myristicin (final concentration, 1000 μM) was added from a 100 times concentrated stock solution in DMSO so that the final DMSO content was 1 % (v/v). Incubations were carried out for 30 min after which the reactions were terminated by adding 25 µl (0.25 times the incubation volume) of ice-cold ACN. Samples were centrifuged for 5 min at 13,000×g, and the supernatant was stored at −20 °C until UPLC analysis. As metabolism of myristicin was observed only in incubations with liver microsomes for male rats and pooled gender human, the determination of kinetic constants for the formation of microsomal metabolites was performed only for the liver fractions. Incubations to determine kinetic constants were performed following the conditions described above using final concentrations of myristicin from 25 to 1000 μM for rat and human liver. In all incubations, the final concentration of DMSO, in which myristicin was dissolved, was kept at 1 % (v/v). The formation of different microsomal metabolites was linear with time and microsomal protein concentration under the conditions described. Blank incubations were performed in the absence of the cofactor NADPH. All incubations were performed in triplicate.
Secondary metabolism of the relevant 1′-hydroxy metabolite of myristicin was taken into account by determining the kinetic constants for its conversion in (a) glucuronidation, (b) sulfation, and (c) oxidation, again under conditions that allowed adequate definition of kinetic constants and with <10 % substrate conversion. Incubation samples were subjected to UPLC analysis that was performed as described previously (Punt et al. [2008]). Identification was achieved by comparing the UV spectra of the formed metabolites to the spectra of the synthesized 1′-hydroxymyristicin and 1′-oxomyristicin reference standards. Quantification of all formed metabolites was done by comparing the peak areas to those of calibration curves of the corresponding reference compounds, determined using UPLC with photodiode array detection (UPLC-PDA). The UPLC system was composed of a Waters (Waters, Milford, MA) Acquity solvent manager, sample manager, and photodiode array detector, equipped with Water Acquity UPLC BEH C18 column.
The gradient for analysis of microsomal metabolites was performed with 100 % ACN and ultrapure water containing 0.1 % (v/v) TFA. The flow rate was 0.6 ml/min. The gradient started at 10 % ACN, increased to 50 % ACN over 4 min, increased to 80 % over 0.5 min, followed by decrease to 10 % ACN over 0.5 min, and finally kept at 10 % for 1 min.

As a reminder, the Km is the substrate concentration at which the rate is half of its maximum. As for `C=CC(O)c1cc(OC)c2c(c1)OCO2` (centres unmarked) [1′-Hydroxymyristicin, 1′-hydroxymyristicin], the Km at 180 min in data set [1] stood at 3.14 mM. Besides, the Vmax in data set [2] (formation of the metabolite from myristicin, NADPH, mean of three ± SD) is listed as 0.86 ± 0.18 nmol min^−1 (mg microsomal or S9 protein)^−1. Further, the “In vitro catalytic efficiency” value in data set [2] (formation of the metabolite from myristicin, Vmax/Km × 1000) is given as 8.431 μl min^−1 (mg microsomal or S9 protein)^−1. The “Scaled Vmax, in vivo” value in data set [2] (from myristicin, microsomal protein yield 35 mg/g liver) was determined as 1.806 μmol/h/g tissue. In data set [2] (from myristicin, scaled Vmax/Km), the “In vivo catalytic efficiency” value came to 0.0177 ml/h/g tissue. Besides, in data set [2] (rat vs human), the “Km for formation from myristicin, fold lower in rat liver than in human liver incubations” value is recorded as “twofold lower” and the “Vmax for formation from myristicin, fold higher in rat liver than in human liver incubations” value was “fivefold higher”. Also, the “catalytic efficiency for formation from myristicin, fold higher in male rat liver than in human liver” value in data set [2] (scaled catalytic efficiency, rat vs human) was found to be 13 fold.
